Our source for the plant injury, pest or weed control and percent preemergent control values is US4740233A, “Substituted 1,2,4-triazolo[1,5-a]-pyrimidine-2-sulfonamides and compositions and methods of controlling undesired vegetation and suppressing the nitrification of ammonium nitrogen in soil” (The Dow Chemical Company, priority 1986, dated 1988).

Holding throughout (test): Preemergent control of plant species
The test system of one experiment is rape. The format is in vivo, Brassica napus. The conditions noted are these: 0.25 lb/acre; for plant injury at 280.212 g/ha: Brassica napus, pre-emergence, 336 h, read-out: percent preemergent control. How it is done: (§1) The seeds of various species of plants were planted in beds of good agricultural soil in a greenhouse. A number of compositions of the present invention, generally in the nature of an aqueous emulsion, were applied at rates listed in the table so as to deposit a predetermined amount of active ingredients uniformly throughout the surface of the bed. Another seed bed was treated only with water to serve as a control. After treatment the seed beds were maintained for two weeks under greenhouse conditions conducive for good plant growth and watered as necessary. Control refers to the reduction in growth compared to the observed results of the same untreated species.

Another experiment concerns cotton. The format is in vivo, Gossypium spp. The conditions noted are these: 0.25 lb/acre; for plant injury at 280.212 g/ha: Gossypium hirsutum, pre-emergence, 336 h, read-out: percent preemergent control. The method, then:
as §1

Another experiment deals with johnson grass. It counts as in vivo, Sorghum halepense. Particulars: 0.25 lb/acre; for pest or weed control at 280.212 g/ha: Sorghum halepense, pre-emergence, 336 h, read-out: percent preemergent control. The method, then:
as §1

The next experiment deals with yellow foxtail. The format is in vivo, Setaria lutescens. Particulars: 0.25 lb/acre; for pest or weed control at 280.212 g/ha: Setaria, pre-emergence, 336 h, read-out: percent preemergent control. How it is done:
as §1

The test system of the next experiment is jimsonweed. The format is in vivo, Datura stramonium. Particulars: 0.25 lb/acre; for pest or weed control at 280.212 g/ha: Datura stramonium, pre-emergence, 336 h, read-out: percent preemergent control. The method, then: as §1
The next experiment concerns sugar beet. The format is in vivo, Beta saccharifera. The conditions noted are these: 0.25 lb/acre; for plant injury at 280.212 g/ha: Beta vulgaris, pre-emergence, 336 h, read-out: percent preemergent control. How it is done: as §1
The test system of a further experiment is soybean. The format is in vivo, Glycine max. The conditions noted are these: 0.25 lb/acre; for plant injury at 280.212 g/ha: Glycine max, pre-emergence, 336 h, read-out: percent preemergent control. How it is done: as §1
The next experiment has as its system rice. It counts as in vivo, Oryza sativa. The conditions noted are these: 0.25 lb/acre; for plant injury at 280.212 g/ha: Oryza sativa, pre-emergence, 336 h, read-out: percent preemergent control. The method, then: as §1
The subject of a further experiment is velvetleaf. It counts as in vivo, Abutilon theophrasti. The conditions noted are these: 0.25 lb/acre; for pest or weed control at 280.212 g/ha: Abutilon theophrasti, pre-emergence, 336 h, read-out: percent preemergent control. The method, then: as §1
The next experiment deals with yellow nutsedge. It counts as in vivo, Cyperus esculentus. The conditions noted are these: 0.25 lb/acre; for pest or weed control at 280.212 g/ha: Cyperus, pre-emergence, 336 h, read-out: percent preemergent control. The method, then:
as §1

The next experiment has as its system corn. It counts as in vivo, Zea mays. The conditions noted are these: 0.25 lb/acre; for plant injury at 280.212 g/ha: Zea mays, pre-emergence, 336 h, read-out: percent preemergent control. How it is done:
as §1

The next experiment concerns annual morning glory. It counts as in vivo, Ipomoea spp. Particulars: 0.25 lb/acre; for pest or weed control at 280.212 g/ha: Ipomoea, pre-emergence, 336 h, read-out: percent preemergent control. How it is done:
as §1

The next experiment concerns barnyardgrass. It counts as in vivo, Echinochloa crusgalli. The conditions noted are these: 0.25 lb/acre; for pest or weed control at 280.212 g/ha: Echinochloa crus-galli, pre-emergence, 336 h, read-out: percent preemergent control. The method, then:
as §1

A further experiment has as its system wheat. The format is in vivo, Triticum aestivum. The conditions noted are these: 0.25 lb/acre; for plant injury at 280.212 g/ha: Triticum aestivum, pre-emergence, 336 h, read-out: percent preemergent control. How it is done:
as §1

A further experiment relates to sorghum. The format is in vivo, Sorghum vulgare. The conditions noted are these: 0.25 lb/acre; for plant injury at 280.212 g/ha: Sorghum, pre-emergence, 336 h, read-out: percent preemergent control. The method, then:
as §1

As to `O=S(=O)(Nc1c(F)cccc1F)c1nc2ncccn2n1` [Compound 138], the plant injury at 280.212 g/ha in the experiment on rape was determined as 100%; in the experiment on cotton, 100%; with sugar beet, 90%; in the experiment on soybean, 50%; in the experiment on rice, 50%; in the experiment with corn it was 30%. Besides, the plant injury at 280.212 g/ha in the experiment on wheat worked out at 10%; in the experiment on sorghum, 50%. In addition, the pest or weed control at 280.212 g/ha with johnson grass worked out at 90%; in the experiment with yellow foxtail, 90%; with jimsonweed it was 20%; in the experiment on velvetleaf it was 90%; with yellow nutsedge it was 80%; in the experiment with annual morning glory, 20%. In addition, the pest or weed control at 280.212 g/ha in the experiment with barnyardgrass was 0%.
In the case of `Cc1ccc(Cl)c(NS(=O)(=O)c2nc3ncccn3n2)c1Cl` [Compound 139], the plant injury at 280.212 g/ha with rape was 100%; in the experiment with cotton it was 100%; in the experiment on sugar beet, 100%; with soybean it was 50%; in the experiment with rice, 90%; in the experiment on corn, 70%. Besides, the plant injury at 280.212 g/ha in the experiment with wheat was found to be 80%; in the experiment on sorghum, 100%. For the same molecule, the pest or weed control at 280.212 g/ha with johnson grass came out at 100%; in the experiment with yellow foxtail, 100%; in the experiment with jimsonweed, 100%; in the experiment on velvetleaf it was 100%; in the experiment with yellow nutsedge it was 100%; in the experiment on annual morning glory, 90%. The pest or weed control at 280.212 g/ha with barnyardgrass was determined as 80%.
As for `COc1cccc(C(F)(F)F)c1NS(=O)(=O)c1nc2ncccn2n1` [Compound 141], the plant injury at 280.212 g/ha in the experiment with rape, in the experiment on cotton, in the experiment with sugar beet, with soybean, with rice and with corn was 100% in each case. Further, the plant injury at 280.212 g/ha in the experiment with wheat came to 95%; with sorghum, 100%. In addition, the pest or weed control at 280.212 g/ha amounted to 100% in the experiment on johnson grass; 100% in the experiment on yellow foxtail; 100% in the experiment on jimsonweed; 100% with velvetleaf; 75% in the experiment with yellow nutsedge; 100% in the experiment on annual morning glory. Further, the pest or weed control at 280.212 g/ha in the experiment with barnyardgrass was determined as 95%.
Consider `COc1cccc(F)c1NS(=O)(=O)c1nc2nc(C)ccn2n1` [Compound 171], for which the plant injury at 280.212 g/ha in the experiment on rape worked out at 100%; with cotton, 70%; with sugar beet it was 100%; in the experiment on soybean, 20%; in the experiment with rice it was 90%; with corn, 40%. Moreover, the results for the plant injury at 280.212 g/ha in the experiment on wheat and with sorghum were 50% and 100%, respectively. In addition, the pest or weed control at 280.212 g/ha in the experiment with johnson grass was determined as 100%; with yellow foxtail, 100%; in the experiment on jimsonweed, 20%; with velvetleaf it was 90%; in the experiment with yellow nutsedge it was 80%; in the experiment with annual morning glory it was 50%. Besides, in the experiment with barnyardgrass, the pest or weed control at 280.212 g/ha came out at 100%.
For the molecule `Cc1ccn2nc(S(=O)(=O)Nc3c(F)cccc3[N+](=O)[O-])nc2n1` [Compound 173], the percent preemergent control is 80% in the experiment with rape; 50% in the experiment on cotton; 70% in the experiment with johnson grass; 50% in the experiment with yellow foxtail; 0% with jimsonweed; 90% in the experiment on sugar beet. The percent preemergent control was 0% in the experiment on soybean; 70% in the experiment on rice; 0% with velvetleaf; 0% in the experiment on yellow nutsedge; 30% in the experiment with corn; 0% with annual morning glory. For the same molecule, the results for the percent preemergent control with barnyardgrass, in the experiment on wheat and in the experiment with sorghum were 30%, 20% and 30%, respectively.
On to `COC(=O)c1cccc(C)c1NS(=O)(=O)c1nc2nccc(C)n2n1` [Compound 189], for which the plant injury at 280.212 g/ha in the experiment on rape stood at 100%; in the experiment with cotton, 100%; in the experiment with sugar beet it was 100%; in the experiment with soybean it was 80%; in the experiment on rice it was 90%; in the experiment on corn it was 80%. Moreover, the plant injury at 280.212 g/ha in the experiment on wheat amounted to 80%; with sorghum, 100%. Also, the pest or weed control at 280.212 g/ha worked out at 70% in the experiment on johnson grass; 80% in the experiment with yellow foxtail; 80% in the experiment on jimsonweed; 100% in the experiment on velvetleaf; 100% in the experiment with yellow nutsedge; 50% with annual morning glory. Besides, the pest or weed control at 280.212 g/ha in the experiment on barnyardgrass is 80%.
As for `COc1nc2nc(S(=O)(=O)Nc3ccccc3C(F)(F)F)nn2cc1C` [Compound 217], the plant injury at 280.212 g/ha with rape is 100%; in the experiment on cotton, 100%; with sugar beet, 100%; in the experiment with soybean, 100%; in the experiment with rice, 90%; in the experiment on corn, 50%. The plant injury at 280.212 g/ha in the experiment with wheat and in the experiment on sorghum was 100% in each case. Also, the pest or weed control at 280.212 g/ha is 100% in the experiment with johnson grass; 50% in the experiment with yellow foxtail; 100% with jimsonweed; 100% in the experiment on velvetleaf; 70% with yellow nutsedge; 100% with annual morning glory. Besides, in the experiment with barnyardgrass, the pest or weed control at 280.212 g/ha was determined as 90%.
As to `COc1nc2nc(S(=O)(=O)Nc3c(Cl)ccc(C)c3Cl)nn2cc1C` [Compound 218], the plant injury at 280.212 g/ha in the experiment with rape is 100%; in the experiment on cotton it was 100%; in the experiment with sugar beet it was 100%; in the experiment on soybean, 100%; in the experiment on rice, 0%; in the experiment on corn, 0%. The plant injury at 280.212 g/ha was 0% in the experiment with wheat and 95% in the experiment with sorghum. Besides, the pest or weed control at 280.212 g/ha in the experiment on johnson grass was 50%; in the experiment with yellow foxtail, 50%; with jimsonweed, 100%; with velvetleaf it was 100%; with yellow nutsedge, 50%; with annual morning glory, 100%. For the same molecule, the pest or weed control at 280.212 g/ha with barnyardgrass is 0%.
Consider `Cc1cc(C(F)(F)F)n2nc(S(=O)(=O)Nc3c(F)cccc3F)nc2n1` [Compound 228], for which the plant injury at 280.212 g/ha in the experiment with rape stood at 80%; in the experiment with cotton, 90%; with sugar beet, 100%; in the experiment with soybean, 20%; with corn it was 50%; with wheat, 50%. Besides, the plant injury at 280.212 g/ha in the experiment with sorghum came to 100%. Also, the pest or weed control at 280.212 g/ha with johnson grass turned out to be 90%; with yellow foxtail, 50%; in the experiment with jimsonweed, 100%; in the experiment with velvetleaf, 90%; with yellow nutsedge, 50%; with annual morning glory, 70%. Further, in the experiment on barnyardgrass, the pest or weed control at 280.212 g/ha amounted to 90%.
